Measurements from paper doi:10.1101/2022.07.25.501355v1, “Building artificial plant cell wall on lipid bilayer by assembling polysaccharides and engineered proteins” (biorxiv, 2022).

Columns and labels:
[1] = target: T1, diCBM77Rf (Ruminococcus flavefaciens, UniProt A0A1A9TA81); assay: isothermal titration calorimetry; format: binding; details: 25 °C; 20 mM Tris pH 7.5, 100 mM NaCl (ligand in 20 mM Tris pH 7.5); N fixed at 2 in the fit; no full sigmoid; ligand mainly DP7 with some DP8
T1 construct: CBM77 domain only; N-terminal His-tag cut by TEV; E. coli BL21(DE3)
T1 sequence (A0A1A9TA81 2-115): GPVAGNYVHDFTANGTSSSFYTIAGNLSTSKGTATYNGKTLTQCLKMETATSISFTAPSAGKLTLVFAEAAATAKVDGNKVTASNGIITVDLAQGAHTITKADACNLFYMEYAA
Text: isothermal titration calorimetry on diCBM77Rf

[2] = target: Janus lectin RSL-CBM77Rf; format: binding, Ralstonia nicotianae / Ruminococcus flavefaciens; details: 25 °C; 20 mM Tris pH 7.5, 100 mM NaCl (ligand in 20 mM Tris pH 7.5); site on CBM77Rf part; ligand mainly DP7 with some DP8

O=C(O)[C@H]1O[C@H](O[C@@H]2[C@H](O)[C@@H](O)[C@@H](O[C@@H]3[C@H](O)[C@@H](O)[C@@H](O[C@@H]4[C@H](O)[C@@H](O)[C@@H](O[C@@H]5[C@H](O)[C@@H](O)[C@@H](O[C@@H]6[C@H](O)[C@@H](O)[C@@H](O[C@@H]7[C@H](O)[C@@H](O)C(O)O[C@@H]7C(=O)O)O[C@@H]6C(=O)O)O[C@@H]5C(=O)O)O[C@@H]4C(=O)O)O[C@@H]3C(=O)O)O[C@@H]2C(=O)O)[C@H](O)[C@@H](O)[C@H]1O (some centres unmarked) [GalA_DP7]
Kd [1]: 1280 ± 100 µM | Kd [2]: 103 ± 15 µM
